# From patent US9062118B2 (priority 2006, dated 2015)
# pIC50: −log10 of the molar value. Bridge positions count the residues as written; N and C are the ends. Peptide text beside a SMILES is read from it.
# Biological target: adult mouse muscle nAChR subtype (α1β1εδ) (Mus musculus, UniProt P02716+P04756+P20782)
# Assay: cell-based
# Sequence of adult mouse muscle nAChR subtype (α1β1εδ) (P02716 whole entry, looked up): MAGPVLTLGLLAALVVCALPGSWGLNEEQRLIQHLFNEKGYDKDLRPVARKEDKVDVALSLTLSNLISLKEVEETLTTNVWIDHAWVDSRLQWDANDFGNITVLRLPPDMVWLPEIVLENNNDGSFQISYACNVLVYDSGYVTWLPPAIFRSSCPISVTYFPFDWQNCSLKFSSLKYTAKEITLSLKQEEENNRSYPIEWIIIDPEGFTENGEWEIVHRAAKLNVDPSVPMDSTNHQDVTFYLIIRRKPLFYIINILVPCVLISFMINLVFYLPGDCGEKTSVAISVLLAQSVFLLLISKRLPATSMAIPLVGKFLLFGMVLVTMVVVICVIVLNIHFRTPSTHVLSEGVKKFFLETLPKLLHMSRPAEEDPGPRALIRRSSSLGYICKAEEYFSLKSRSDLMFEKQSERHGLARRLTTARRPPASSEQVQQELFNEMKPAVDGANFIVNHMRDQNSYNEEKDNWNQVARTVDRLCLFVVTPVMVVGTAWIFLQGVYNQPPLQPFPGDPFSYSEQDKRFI
# Sequence of adult mouse muscle nAChR subtype (α1β1εδ) (P04756 whole entry, looked up): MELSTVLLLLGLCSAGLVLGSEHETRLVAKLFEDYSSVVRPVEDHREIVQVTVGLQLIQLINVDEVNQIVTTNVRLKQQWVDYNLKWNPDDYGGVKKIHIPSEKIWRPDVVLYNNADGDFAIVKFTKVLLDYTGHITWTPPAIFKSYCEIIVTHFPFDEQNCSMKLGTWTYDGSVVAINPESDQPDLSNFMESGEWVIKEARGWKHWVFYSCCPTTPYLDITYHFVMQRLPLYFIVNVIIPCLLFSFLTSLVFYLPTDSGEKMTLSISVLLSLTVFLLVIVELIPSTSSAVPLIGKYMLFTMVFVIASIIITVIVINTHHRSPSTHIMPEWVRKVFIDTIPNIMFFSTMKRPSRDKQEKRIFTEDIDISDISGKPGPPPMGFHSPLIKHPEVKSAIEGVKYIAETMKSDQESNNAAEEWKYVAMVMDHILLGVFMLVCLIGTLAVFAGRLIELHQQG
# Sequence of adult mouse muscle nAChR subtype (α1β1εδ) (P20782 whole entry, looked up): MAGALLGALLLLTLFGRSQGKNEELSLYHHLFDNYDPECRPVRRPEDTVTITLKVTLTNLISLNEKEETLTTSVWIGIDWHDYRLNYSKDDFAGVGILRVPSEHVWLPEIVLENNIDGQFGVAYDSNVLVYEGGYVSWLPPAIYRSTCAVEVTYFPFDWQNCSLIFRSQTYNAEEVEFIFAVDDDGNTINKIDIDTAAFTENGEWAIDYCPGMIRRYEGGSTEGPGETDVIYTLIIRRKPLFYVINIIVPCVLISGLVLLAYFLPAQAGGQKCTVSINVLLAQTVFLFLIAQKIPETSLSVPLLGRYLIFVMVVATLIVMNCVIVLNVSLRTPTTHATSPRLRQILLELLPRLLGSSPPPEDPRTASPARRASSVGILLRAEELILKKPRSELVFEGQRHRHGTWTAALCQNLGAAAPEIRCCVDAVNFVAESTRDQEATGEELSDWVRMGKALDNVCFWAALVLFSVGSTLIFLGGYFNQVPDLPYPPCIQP
structure (smiles),measurement,value
"CC[C@H](C)[C@@H]1NC(=O)CNC(=O)[C@H](C)NC(=O)[C@H](CCCNC(=N)N)NC(=O)[C@@H]2CSSC[C@@H](C(=O)N[C@@H](CCCNC(=N)N)C(N)=O)NC(=O)[C@H](Cc3c[nH]cn3)NC(=O)[C@H](CSSC[C@H](NC(=O)[C@@H](NC(=O)[C@H](CCCNC(=N)N)NC(=O)[C@@H]3CCCN3C(=O)[C@H](CCCNC(=N)N)NC(=O)[C@@H]3CCCN3C(=O)[C@@H](N)Cc3ccccc3)[C@@H](C)CC)C(=O)N[C@@H](CC(N)=O)C(=O)N[C@@H](CC(C)C)C(=O)N[C@@H](C)C(=O)N2)NC(=O)[C@H](Cc2ccccc2)NC(=O)[C@@H]2CCCN2C(=O)[C@H](Cc2ccc(O)cc2)NC(=O)[C@H](CCCCN)NC(=O)[C@H](Cc2c[nH]cn2)NC(=O)CNC1=O [pl14a] (H-FPRPRICNLACRAGIGHKYPFCHCR-NH2; disulfide 7-22, 11-24)",pIC50,6.29
